From patent US4570006A, “Amidine compound, process for producing same and anti-complement agent comprising same” (Torii & Co. Ltd., priority 1981, dated 1986) come the findings set out here.

Each structure is given as a SMILES string.

The target of one assay is T1, Trypsin (Bos taurus, UniProt P00760).
T1 sequence (P00760 24-246): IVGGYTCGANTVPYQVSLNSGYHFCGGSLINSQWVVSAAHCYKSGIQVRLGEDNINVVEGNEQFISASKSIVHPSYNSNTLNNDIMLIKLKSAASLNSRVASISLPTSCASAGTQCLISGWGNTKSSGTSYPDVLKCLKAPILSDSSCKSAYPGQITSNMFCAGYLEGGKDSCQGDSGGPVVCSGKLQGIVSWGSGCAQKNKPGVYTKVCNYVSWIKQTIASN
The assay is described as follows: Anti-trypsin activity (inhibition of TAME hydrolysis). To be noted: read-out: ID50, trypsin. The format is biochemical. The procedure:
(§1) The anti-trypsin, anti-plasmin, anti-kallikrein and anti-thrombin activities were determined according to the method of Muramatsu et al. [M. Muramatsu, T. Onishi, S. Makino, Y. Hayashi and S. Fujii, J. of Biochem., 58, 214 (1965)]. The data summarized in Table 1 are expressed in terms of molar concentration (ID50) of the test compound which inhibits 50% of the activity of each enzyme to hydrolyze TAME (tosylarginine methyl ester). The compound No. corresponds to the compound number shown in Examples.

In a further assay the target is Plasmin (Homo sapiens, UniProt P00747). Put plainly: Anti-plasmin activity (inhibition of TAME hydrolysis). Type of assay: biochemical. The conditions noted are these: read-out: ID50, plasmin. The protocol:
as §1

The test system of a further assay is Kallikrein. Put plainly: Anti-kallikrein activity (inhibition of TAME hydrolysis). Type of assay: biochemical. The conditions noted are these: read-out: ID50, kallikrein. The protocol:
as §1

The next assay has as its target Thrombin (Homo sapiens, UniProt P00734). The assay is described as follows: biochemical. To be noted: TAME hydrolysis; read-out: ID50, thrombin.
The next assay has as its target T2, Clr (Homo sapiens, UniProt P00736).
T2 sequence (P00736 464-705 limits assumed): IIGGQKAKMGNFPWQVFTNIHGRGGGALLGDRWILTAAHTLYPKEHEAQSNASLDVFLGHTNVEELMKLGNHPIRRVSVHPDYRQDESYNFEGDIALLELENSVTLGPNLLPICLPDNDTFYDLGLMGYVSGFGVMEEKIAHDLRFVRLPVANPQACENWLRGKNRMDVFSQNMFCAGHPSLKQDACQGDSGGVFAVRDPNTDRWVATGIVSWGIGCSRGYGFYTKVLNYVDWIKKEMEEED
T2 sequence (P00736 18-463 limits assumed): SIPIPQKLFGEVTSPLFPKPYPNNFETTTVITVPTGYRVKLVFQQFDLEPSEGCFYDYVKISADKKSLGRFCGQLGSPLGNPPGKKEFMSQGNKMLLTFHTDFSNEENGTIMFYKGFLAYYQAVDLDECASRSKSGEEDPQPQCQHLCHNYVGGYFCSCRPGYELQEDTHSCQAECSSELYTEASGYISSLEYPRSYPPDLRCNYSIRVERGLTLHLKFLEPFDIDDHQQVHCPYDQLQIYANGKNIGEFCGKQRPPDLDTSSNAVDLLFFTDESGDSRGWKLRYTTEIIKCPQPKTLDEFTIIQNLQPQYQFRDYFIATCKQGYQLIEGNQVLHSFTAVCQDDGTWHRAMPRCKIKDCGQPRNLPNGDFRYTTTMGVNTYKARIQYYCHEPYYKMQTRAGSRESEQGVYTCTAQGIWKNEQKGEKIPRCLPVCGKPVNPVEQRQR
Put plainly: Anti-Cl esterase activity, Clr (AAME hydrolysis). Type of assay: biochemical. To be noted: hydrolysis of AAME; read-out: Anti-Cl activity, Clr (ID50). The protocol:
The anti-Cl esterase ([…]) activity was determined according to the method of Okamura et al. [K. Okamura, M. Muramatsu and B. Fujii, Biochem. Biophys.

A further assay has as its target T3, Cls (Homo sapiens, UniProt P09871).
T3 sequence (P09871 438-688 limits assumed): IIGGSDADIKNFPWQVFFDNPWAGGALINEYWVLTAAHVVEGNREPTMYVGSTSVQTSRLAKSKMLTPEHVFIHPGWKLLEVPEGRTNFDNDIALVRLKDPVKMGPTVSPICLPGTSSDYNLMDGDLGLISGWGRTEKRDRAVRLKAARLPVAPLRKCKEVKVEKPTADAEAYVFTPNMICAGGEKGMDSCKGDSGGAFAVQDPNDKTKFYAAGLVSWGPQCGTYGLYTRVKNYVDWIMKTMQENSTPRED
T3 sequence (P09871 16-437 limits assumed): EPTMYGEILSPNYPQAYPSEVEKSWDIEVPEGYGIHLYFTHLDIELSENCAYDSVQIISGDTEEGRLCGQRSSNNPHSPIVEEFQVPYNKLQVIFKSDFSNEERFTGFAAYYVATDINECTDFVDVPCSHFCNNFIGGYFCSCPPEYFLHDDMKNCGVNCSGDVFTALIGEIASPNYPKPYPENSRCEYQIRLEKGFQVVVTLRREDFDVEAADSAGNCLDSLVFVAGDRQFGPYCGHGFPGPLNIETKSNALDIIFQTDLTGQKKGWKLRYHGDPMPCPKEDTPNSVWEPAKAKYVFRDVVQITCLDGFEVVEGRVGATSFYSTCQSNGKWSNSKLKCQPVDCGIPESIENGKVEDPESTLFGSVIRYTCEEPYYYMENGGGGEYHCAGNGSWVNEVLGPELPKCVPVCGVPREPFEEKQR
The assay is described as follows: Anti-Cl esterase activity, Cls (ATEE hydrolysis). Type of assay: biochemical. The conditions noted are these: hydrolysis of ATEE; read-out: Anti-Cl activity, Cls (50% inhibition). The protocol:
The anti-Cl esterase (Clr, Cls) activity was determined according to the method of Okamura et al. [K. Okamura, M. Muramatsu and B. Fujii, Biochem. Biophys. […] The figures in Table 2 have the following meanings:
Cls: Molar concentration of the test compound which inhibits 50% of the ability of Cls to hydrolyse ATEE (acetyltyrosin ethyl ester).

A further assay has as its system complement. Put plainly: Inhibition of complement mediated hemolysis. The format is cell-based.

Sequence of Plasmin (P00747 581-810 limits assumed, species assumed): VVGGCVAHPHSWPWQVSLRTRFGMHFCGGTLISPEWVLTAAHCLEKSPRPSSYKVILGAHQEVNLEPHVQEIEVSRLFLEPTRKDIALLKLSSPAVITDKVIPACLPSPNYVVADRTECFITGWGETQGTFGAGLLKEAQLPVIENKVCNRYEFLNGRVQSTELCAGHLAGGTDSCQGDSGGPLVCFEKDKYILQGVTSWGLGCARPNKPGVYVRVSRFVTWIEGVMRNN
Sequence of Plasmin (P00747 97-580 limits assumed, species assumed): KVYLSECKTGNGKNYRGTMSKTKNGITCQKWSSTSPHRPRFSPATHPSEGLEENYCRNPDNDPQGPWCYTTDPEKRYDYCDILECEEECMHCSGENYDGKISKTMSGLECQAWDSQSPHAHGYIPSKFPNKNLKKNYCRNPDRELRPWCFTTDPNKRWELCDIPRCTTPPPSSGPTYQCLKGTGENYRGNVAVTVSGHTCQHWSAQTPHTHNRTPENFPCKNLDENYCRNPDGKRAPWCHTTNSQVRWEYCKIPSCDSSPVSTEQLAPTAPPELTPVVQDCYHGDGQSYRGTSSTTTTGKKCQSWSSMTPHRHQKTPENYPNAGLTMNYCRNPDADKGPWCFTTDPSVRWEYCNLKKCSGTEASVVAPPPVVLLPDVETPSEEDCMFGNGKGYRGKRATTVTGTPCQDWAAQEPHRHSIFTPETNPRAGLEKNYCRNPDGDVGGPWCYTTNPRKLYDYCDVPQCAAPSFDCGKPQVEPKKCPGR

With `N=C(N)c1ccc(OC(=O)[C@H]2CC[C@H](CN)CC2)c(C(=O)c2ccccc2)c1` [Compound 21], the IC50 on Trypsin is > 10 µM; on Plasmin, > 10 µM; in the assay with Kallikrein, > 10 µM; at Thrombin, > 10 µM; at Clr, > 10 µM; on Cls, 4 µM. Besides, the “Inhibition of complement mediated hemolysis (%)” value (“Inhibition … (%)” for short) with complement (compound at 1 × 10^-4) came to 99.3%; in the assay with complement (compound at 1 × 10^-5), 99.9%; in the assay with complement (compound at 1 × 10^-6), 60.2%; with complement (compound at 1 × 10^-7) it was 10.9%.

As to `Cc1cc(OC(=O)c2ccccc2)ccc1C(=N)N` [Compound 22, 4-amidino-3-methylphenyl benzoate], the IC50 was > 10 µM on Trypsin; > 10 µM on Plasmin; > 10 µM in the assay on Kallikrein; 2 µM on Thrombin; 6 µM at Clr; > 10 µM on Cls. Further, the “Inhibition … (%)” value is listed as 22.8% in the assay with complement (compound at 1 × 10^-4), 0% in the assay with complement (compound at 1 × 10^-5), 0% in the assay with complement (compound at 1 × 10^-6) and 0% in the assay with complement (compound at 1 × 10^-7).

For `N=C(N)c1ccc(OC(=O)c2ccccc2)c(C(=O)O)c1` [Compound 24, 4-amidino-2-carboxyphenyl benzoate], the IC50 at Trypsin was 3 µM; at Plasmin, > 10 µM; in the assay with Kallikrein it was > 10 µM; on Thrombin, 4 µM; on Clr, > 10 µM; at Cls it was 2 µM. The “Inhibition … (%)” value in the assay on complement (compound at 1 × 10^-4) turned out to be 88.2%; with complement (compound at 1 × 10^-5), 29.1%; with complement (compound at 1 × 10^-6), 11.0%; with complement (compound at 1 × 10^-7), 16.7%.

As for `N=C(N)c1ccc(OC(=O)c2ccccc2)c(Cl)c1` [Compound 26, 4-amidino-2-chlorophenyl benzoate], the IC50 at Trypsin was 0.4 µM; at Plasmin it was 0.4 µM; in the assay with Kallikrein it was 2 µM; at Thrombin, 0.06 µM; on Clr, 0.2 µM; on Cls, 0.3 µM. For the same molecule, the “Inhibition … (%)” value is 100.0% with complement (compound at 1 × 10^-4), 99.4% with complement (compound at 1 × 10^-5), 61.6% in the assay on complement (compound at 1 × 10^-6) and 16.7% in the assay on complement (compound at 1 × 10^-7).

Turning to `N=C(N)c1ccc(OC(=O)c2ccccc2)c([N+](=O)[O-])c1` [Compound 27, 4-amidino-2-nitrophenyl benzoate], the IC50 was determined as 0.3 µM at Trypsin; 0.4 µM on Plasmin; 4 µM in the assay on Kallikrein; 0.1 µM at Thrombin; 0.5 µM on Clr; 0.2 µM on Cls. Besides, the “Inhibition … (%)” value with complement (compound at 1 × 10^-4) was 100%; in the assay on complement (compound at 1 × 10^-5), 100%; in the assay on complement (compound at 1 × 10^-6), 95.5%; in the assay with complement (compound at 1 × 10^-7), 26.2%.

Consider `N=C(N)c1ccc(OC(=O)c2ccccc2)c(S(=O)(=O)O)c1` [Compound 28, 5-amidino-2-benzoyloxybenzenesulfonic acid], for which the IC50 is 10 µM on Trypsin; 7 µM on Plasmin; > 10 µM with Kallikrein; 3 µM on Thrombin; > 10 µM at Clr; 3 µM at Cls. Further, the “Inhibition … (%)” value was determined as 79.1% in the assay with complement (compound at 1 × 10^-4), 25.0% with complement (compound at 1 × 10^-5), 22.8% with complement (compound at 1 × 10^-6) and 23.8% in the assay with complement (compound at 1 × 10^-7).
